# From ChEMBL document CHEMBL5034023, “Development of Multifunctional and Orally Active Cyclic Peptide Agonists of Opioid/Neuropeptide FF Receptors that Produce Potent, Long-Lasting, and Peripherally Restricted Antinociception with Diminished Side Effects” (J Med Chem, 2021)
# The source made the active and inactive calls. Bridge positions count the residues as written; N and C are the ends. Square brackets hold non-standard residues; d marks the D form. Peptide text beside a SMILES is read from it. NMeF = CN[C@@H](Cc1ccccc1)C(=O)O
# How the values were obtained:
# Mus musculus [1] = assay: Antinociceptive activity against Kunming mouse model of thermal-induced nociception assessed as prolongation of tail-flick latency period at 2 pmol, icv in presence of Nal measured up to 240 mins by tail-flick test; type: functional, organism-based; settings: time min <=240
# Mus musculus [2] = assay: Antinociceptive activity against Kunming mouse model of thermal-induced nociception assessed as prolongation of tail-flick latency period at 8.68 nmol/kg, sc in presence of NALM at 5 nmol/kg, icv measured up to 240 mins by tail-flick test; type: functional, organism-based; settings: time min <=240
# [3] = target: Delta-type opioid receptor (Homo sapiens, UniProt P41143); assay: Agonist activity at DOR (unknown origin) expressed in HEK293-A cells assessed as inhibition of forskolin-induced cAMP accumulation preincubated for 30 mins in presence of 3-isobutyl-1-methylxanthine followed by forskolin and compound addition by competitive PKA binding assay; type: functional, cell-based
# Delta-type opioid receptor, sequence (P41143 whole entry): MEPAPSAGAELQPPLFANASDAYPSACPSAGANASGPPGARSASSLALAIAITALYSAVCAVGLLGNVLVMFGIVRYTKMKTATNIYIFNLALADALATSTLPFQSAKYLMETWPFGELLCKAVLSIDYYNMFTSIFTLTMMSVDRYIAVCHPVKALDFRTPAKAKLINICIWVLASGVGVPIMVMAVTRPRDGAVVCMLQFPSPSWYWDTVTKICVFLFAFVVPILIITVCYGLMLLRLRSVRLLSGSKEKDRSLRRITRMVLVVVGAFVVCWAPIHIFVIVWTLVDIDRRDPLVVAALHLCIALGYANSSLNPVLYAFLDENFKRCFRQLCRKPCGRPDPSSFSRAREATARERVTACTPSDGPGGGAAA
# Mus musculus [4] = assay: Antinociceptive activity against Kunming mouse model of thermal-induced nociception assessed as prolongation of tail-flick latency period at 8.68 nmol/kg, sc in presence of Nal at 1 mg/kg, sc measured up to 240 mins by tail-flick test; type: functional, organism-based; settings: time min <=240
# Mus musculus [5] = assay: Antinociceptive activity against Kunming mouse model of thermal-induced nociception assessed as prolongation of tail-flick latency period at 8.68 nmol/kg, sc in presence of NTI at 1 mg/kg, sc measured up to 240 mins by tail-flick test; type: functional, organism-based; settings: time min <=240
# [6] = Toxicity in Kunming mouse assessed as effect on arterial bicarbonate level at 868.1 nmol/kg, po measured up to 30 mins by blood gas analyzer; type: organism-based; settings: in vivo, 0.5 h
# [7] = Toxicity in Kunming mouse assessed as inhibition of gastrointestinal transit at 8681 nmol/kg, po measured after 30 mins by charcoal meal test relative to control; type: organism-based; set-up: scale not given: the % may be the effect or the level left; settings: in vivo, 0.5 h
# [8] = Toxicity in Kunming mouse assessed as effect on locomotor activity at 86.8 to 868.1 nmol/kg, po measured for 150 mins by open field test; type: organism-based; settings: in vivo, 2.5 h, dose 86.8-868.1 nmol/kg
# [9] = Apparent volume of distribution in Kunming mouse at 868.1 nmol/kg, po measured up to 120 mins by LC-MS/MS analysis; type: ADME, organism-based; settings: in vivo, 2 h
# Mus musculus [10] = assay: Antinociceptive activity against Kunming mouse model of thermal-induced nociception assessed as prolongation of tail-flick latency period at 8.68 nmol/kg, po in presence of NTI at 1 mg/kg, ip measured up to 240 mins by tail-flick test; type: functional, organism-based; settings: time min <=240
# Mus musculus [11] = assay: Antinociceptive activity against Kunming mouse model of thermal-induced nociception assessed as prolongation of tail-flick latency period at 8.68 nmol/kg, sc in presence of beta-FNA at 1 mg/kg, sc measured up to 240 mins by tail-flick test; type: functional, organism-based; settings: time min <=240
# [12] = Metabolic stability in mouse plasma assessed as degradation half life at 0.01 M measured up to 360 mins; type: ADME, cell-free
# [13] = MRT (0 to infinity) in Kunming mouse at 868.1 nmol/kg, iv measured up to 120 mins by LC-MS/MS analysis; type: ADME, organism-based; settings: in vivo
# Mus musculus [14] = assay: Antinociceptive activity against Kunming mouse model of thermal-induced nociception assessed as prolongation of tail-flick latency period at 2 pmol, icv in presence of bet-FNA measured up to 240 mins by tail-flick test; type: functional, organism-based; settings: time min <=240
# [15] = Half life in Kunming mouse at 868.1 nmol/kg, po measured up to 120 mins by LC-MS/MS analysis; type: ADME, organism-based; settings: in vivo
# Mus musculus [16] = assay: Antinociceptive activity against Kunming mouse model of thermal-induced nociception assessed as prolongation of tail-flick latency period at 0.87 nmol/kg, po in presence of RF9 at 5 mg/kg, ip measured up to 240 mins by tail-flick test; type: functional, organism-based; settings: time min <=240
# [17] = target: Neuropeptide FF receptor 1 (Homo sapiens, UniProt Q9GZQ6); assay: Agonist activity at NPFF1R (unknown origin) expressed in HEK293-A cells assessed as inhibition of forskolin-induced cAMP accumulation preincubated for 30 mins in presence of 3-isobutyl-1-methylxanthine followed by forskolin and compound addition by competitive PKA binding assay; type: functional, cell-based
# Neuropeptide FF receptor 1, sequence (Q9GZQ6 whole entry): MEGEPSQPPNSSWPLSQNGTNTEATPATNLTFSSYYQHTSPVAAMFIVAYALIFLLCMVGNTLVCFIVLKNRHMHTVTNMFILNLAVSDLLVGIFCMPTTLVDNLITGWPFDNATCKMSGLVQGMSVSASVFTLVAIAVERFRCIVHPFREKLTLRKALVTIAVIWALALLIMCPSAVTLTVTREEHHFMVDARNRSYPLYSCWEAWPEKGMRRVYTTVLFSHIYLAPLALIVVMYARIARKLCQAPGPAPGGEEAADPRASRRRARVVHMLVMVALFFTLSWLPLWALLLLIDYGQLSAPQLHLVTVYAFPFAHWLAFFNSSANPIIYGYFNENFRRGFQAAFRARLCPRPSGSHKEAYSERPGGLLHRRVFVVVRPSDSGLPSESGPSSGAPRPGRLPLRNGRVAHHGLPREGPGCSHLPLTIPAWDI
# Mus musculus [18] = assay: Antinociceptive activity against Kunming mouse model of thermal-induced nociception assessed as prolongation of tail-flick latency period at 8.68 nmol/kg, po measured up to 240 mins by tail-flick test; type: functional, organism-based; settings: time min <=240
# [19] = Cmax in Kunming mouse at 868.1 nmol/kg, po measured up to 120 mins by LC-MS/MS analysis; type: ADME, organism-based; set-up: route oral, dose 868.1 nmol/kg, time <=120; settings: in vivo
# [20] = Apparent volume of distribution in Kunming mouse at 868.1 nmol/kg, iv measured up to 120 mins by LC-MS/MS analysis; type: ADME, organism-based; settings: in vivo, read-out: Vd(app)
# [21] = MRT (0 to infinity) in Kunming mouse at 868.1 nmol/kg, po measured up to 120 mins by LC-MS/MS analysis; type: ADME, organism-based; settings: in vivo
# Mus musculus [22] = assay: Antinociceptive activity in po dosed Kunming mouse assessed as analgesic tolerance by measuring increase in maximal possible effect administered for 8 consecutive days by tail flick test (Rvb= 1.16 nmol/kg); type: functional
# [23] = Half life in Kunming mouse at 868.1 nmol/kg, iv measured up to 120 mins by LC-MS/MS analysis; type: ADME, organism-based; settings: in vivo
# Mus musculus [24] = assay: Antinociceptive activity against Kunming mouse model of thermal-induced nociception assessed as duration of analgesic effect administered subcutaneously by tail-flick test; type: functional
# [25] = Toxicity in Kunming mouse assessed as effect on conditioned place preference at 868.1 nmol/kg, po measured for 5 days; type: organism-based; settings: in vivo, 120 h, time 5 day
# Mus musculus [26] = assay: Antinociceptive activity against Kunming mouse model of thermal-induced nociception assessed as maximum possible effect at 8.68 nmol/kg, po measured after 60 min by tail flick test relative to control; type: functional; settings: 1 h
# [27] = Toxicity in naloxone-induced withdrawal symptoms in Kunming mouse assessed as effect on jumping response at 17 to 870 nmol/kg, po for every 8 hrs followed by naloxone stimulation and measured for 3 days; type: organism-based; settings: in vivo, 72 h, dose 17-870 nmol/kg, time 3 day
# Mus musculus [28] = assay: Antinociceptive activity against Kunming mouse model of thermal-induced nociception assessed as prolongation of tail-flick latency period at 8.68 nmol/kg, po in presence of NALM at 1 mg/kg, ip measured up to 240 mins by tail-flick test; type: functional, organism-based; settings: time min <=240
# [29] = target: Kappa-type opioid receptor (Homo sapiens, UniProt P41145); type: functional, cell-based, HEK293-A
# Kappa-type opioid receptor, sequence (P41145 whole entry): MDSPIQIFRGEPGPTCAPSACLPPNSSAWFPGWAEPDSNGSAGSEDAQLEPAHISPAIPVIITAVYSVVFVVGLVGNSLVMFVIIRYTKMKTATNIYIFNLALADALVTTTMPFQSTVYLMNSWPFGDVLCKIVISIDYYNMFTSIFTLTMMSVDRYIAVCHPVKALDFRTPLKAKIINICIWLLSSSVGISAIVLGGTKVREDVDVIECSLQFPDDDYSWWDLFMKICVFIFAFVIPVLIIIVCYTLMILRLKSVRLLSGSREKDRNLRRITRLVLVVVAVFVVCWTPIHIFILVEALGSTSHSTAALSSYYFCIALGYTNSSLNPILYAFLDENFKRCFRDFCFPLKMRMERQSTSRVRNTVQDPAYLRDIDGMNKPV
# Mus musculus [30] = assay: Antinociceptive activity against Kunming mouse model of thermal-induced nociception assessed as prolongation of tail-flick latency period at 2 pmol, icv in presence of nor-BNI measured up to 240 mins by tail-flick test; type: functional, organism-based; settings: time min <=240
# Mus musculus [31] = assay: Antinociception activity in po dosed Kunming mouse model of sciatic nerve CCI-induced neuropathic pain assessed as reduction in thermal hypersensitivity by measuring reduction in paw withdrawl threshold measured up to 180 mins by Hargreaves test; type: functional; settings: 3 h, time min <=180
# [32] = Toxicity in Kunming mouse assessed as effect on arterial pH at 868.1 nmol/kg, po measured up to 30 mins by blood gas analyzer; type: organism-based; settings: in vivo, 0.5 h
smiles,measurement,setting,value
CN1C(=O)CNC(=O)[C@H](NC(=O)[C@@H](N)Cc2ccc(O)cc2)CCCCNC(=O)C[C@@H](C(=O)N2CCC[C@H]2C(=O)N[C@@H](CCC(N)=O)C(=O)N[C@@H](CCCNC(=N)N)C(=O)N[C@@H](Cc2ccccc2)C(N)=O)NC(=O)[C@@H]1Cc1ccccc1 (H-Y[dK]G[NMeF]DPQRF-NH2; lactam 2-5),Activity,Mus musculus [1],inactive
same,Activity,Mus musculus [2],Active
same,EC50,[3],546 nM
same,Activity,Mus musculus [4],inactive
same,Activity,Mus musculus [5],Active
same,Activity,[6],Non-Toxic
same,Activity,[7],> 50%
same,Activity,[8],Non-Toxic
same,Vd(app),[9],15.9 L/kg
same,Activity,Mus musculus [10],Active
same,Activity,Mus musculus [11],inactive
same,half-life at 10000 µM,[12],45.4 min
same,MRT inf,[13],5 min
same,Activity,Mus musculus [14],inactive
same,half-life,[15],188 min
same,Activity,Mus musculus [16],Active
same,EC50,[17],580 nM
same,Activity,Mus musculus [18],Active
same,Cmax,[19],215 ng/mL
same,Vd,[20],1.2 L/kg
same,MRT inf,[21],279 min
same,ED50,Mus musculus [22],0.00126 µmol/kg
same,half-life,[23],28.1 min
same,Tlast,Mus musculus [24],240 min
same,Activity,[25],Non-Toxic
same,MPE,Mus musculus [26],78.9%
same,Activity,[27],Non-Toxic
same,Activity,Mus musculus [28],inactive
same,EC50,[29],39 nM
same,Activity,Mus musculus [30],inactive
same,ED50,Mus musculus [31],0.00322 µmol/kg
same,Activity,[32],Non-Toxic
